Measurements: patent US9540392B2, “Thienopyrimidines” (BAYER PHARMA AKTIENGESELLSCHAFT, priority 2012, dated 2017)
Read-outs that look alike come from different tables or passages of the source.

Target: T1, human full-length MKNK1 (Homo sapiens, UniProt Q9BUB5, T385D)
T1 construct: GST (N); purchased Carna Biosciences 02-145; host or cells: insect cells (baculovirus expression system)
Assay: MKNK1 kinase high ATP assay (TR-FRET)
Format: biochemical
Summary of the method: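 Compound was preincubated 15 min at 22° C. with MKNK1 in 50 mM HEPES pH 7.5, 5 mM MgCl2, 1.0 mM DTT, then the reaction ran 30 min at 22° C. with 2 mM ATP and 0.06 μM biotinylated peptide (final).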

[1] = 2 mM ATP, after preincubation with MKNK1, read-out: MKNK1 IC50 (MKNK1 high ATP)

T1 sequence (Q9BUB5 1-424 isoform Q9BUB5-2 T344D): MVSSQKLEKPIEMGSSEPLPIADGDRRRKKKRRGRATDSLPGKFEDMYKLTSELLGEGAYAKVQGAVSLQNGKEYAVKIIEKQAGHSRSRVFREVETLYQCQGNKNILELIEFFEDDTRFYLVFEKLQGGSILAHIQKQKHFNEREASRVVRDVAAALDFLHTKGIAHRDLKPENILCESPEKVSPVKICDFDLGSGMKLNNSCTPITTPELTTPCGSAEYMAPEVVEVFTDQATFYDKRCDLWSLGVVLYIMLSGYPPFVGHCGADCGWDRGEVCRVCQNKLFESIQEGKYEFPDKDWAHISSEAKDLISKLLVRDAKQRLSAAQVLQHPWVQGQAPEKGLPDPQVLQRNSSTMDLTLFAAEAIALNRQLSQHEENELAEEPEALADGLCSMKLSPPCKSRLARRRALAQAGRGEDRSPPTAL

| SMILES | IC50 [1] | IC50 |
| --- | --- | --- |
| O=C(Nc1cccnn1)C1CCc2c(sc3ncnc(Nc4ccc5[nH]ncc5c4)c23)C1 (racemic) [Example 149, (RS)-4-(1H-indazol-5-ylamino)-N-(pyridazin-3-yl)-5,6,7,8-tetrahydro[1]benzothieno[2,3-d]pyrimidine-7-carboxamide] | 27.4 nM | – |
| CCOc1cc2[nH]ncc2cc1Nc1ncnc2sc3c(c12)CCC(C(=O)N(C)CCN)C3 (racemic) [Example 271, (RS)-5-({7-[(2-Ammonioethyl)(methyl)carbamoyl]-5,6,7,8-tetrahydro[1]benzothieno[2,3-d]pyrimidin-4-yl}amino)-6-ethoxy-1H-indazol-1-ium bis(trifluoroacetate)] | 0.4 nM | – |
| CN(C)CCNC(=O)C1CCc2c(sc3ncnc(Nc4ccc5[nH]ncc5c4)c23)C1 (stereo not drawn) [Example 38, N-[2-(Dimethylamino)ethyl]-4-(1H-indazol-5-ylamino)-5,6,7,8-tetrahydro[1] benzothieno [2,3-d]pyrimidine-7-carboxamide] | 6 nM | – |
| CC(C)Oc1cc2[nH]ncc2cc1Nc1ncnc2sc3c(c12)CCC(C(=O)N1CC2(CCO2)C1)C3 (racemic) [Example 259, (RS)-{4-[(6-Isopropoxy-1H-indazol-5-yl)amino]-5,6,7,8-tetrahydro[1]benzothieno[2,3-d]pyrimidin-7-yl}(1-oxa-6-azaspiro[3.3]hept-6-yl)methanone] | 1.9 nM | – |
| CN(CCCCO)C(=O)C1CCc2c(sc3ncnc(Nc4ccc5[nH]ncc5c4)c23)C1 (racemic) [Example 193, (RS)-N-(4-hydroxybutyl)-4-(1H-indazol-5-ylamino)-N-methyl-5,6,7,8-tetrahydro[1]benzothieno[2,3-d]pyrimidine-7-carboxamide] | 16.8 nM | – |
| O=C(C1CCc2c(sc3ncnc(Nc4ccc5[nH]ncc5c4)c23)C1)N1CCC(O)(C(F)(F)F)CC1 (racemic) [Example 194, (RS)-[4-hydroxy-4-(trifluoromethyl)piperidin-1-yl][4-(1H-indazol-5-ylamino)-5,6,7,8-tetrahydro[1]benzothieno[2,3-d]pyrimidin-7-yl]methanone] | 12 nM | – |
| CCOc1cc2[nH]ncc2cc1Nc1ncnc2sc3c(c12)CCC(C(=O)N(CCOC)CCOC)C3 (racemic) [Example 252, (RS)-4-[(6-Ethoxy-1H-indazol-5-yl)amino]-N,N-bis(2-methoxyethyl)-5,6,7,8-tetrahydro[1]benzothieno[2,3-d]pyrimidine-7-carboxamide] | 2.2 nM | – |
| COc1cc2[nH]ncc2cc1Nc1ncnc2sc3c(c12)CCC(C(=O)N1C[C@H](O)[C@@H](O)C1)C3 (mixture of isomers) [Example 244, [(3R,4R)-3,4-Dihydroxypyrrolidin-1-yl]{(7RS)-4-[(6-methoxy-1H-indazol-5-yl)amino]-5,6,7,8-tetrahydro[1]benzothieno[2,3-d]pyrimidin-7-yl}methanone] | 0.4 nM | – |
| CC(C)Oc1cc2[nH]ncc2cc1Nc1ncnc2sc3c(c12)CCC(C(=O)N1[C@H](C)CC[C@H]1C)C3 (mixture of isomers) [Example 227, [(2R,5R)-2,5-Dimethylpyrrolidin-1-yl]{(7RS)-4-[(6-isopropoxy-1H-indazol-5-yl)amino]-5,6,7,8-tetrahydro[1]benzothieno[2,3-d]pyrimidin-7-yl}methanone] | 0.6 nM | – |
| O=C(NC1COC1)C1CCc2c(sc3ncnc(Nc4ccc5[nH]ncc5c4)c23)C1 (racemic) [Example 78, (RS)-4-(1H-Indazol-5-ylamino)-N-(oxetan-3-yl)-5,6,7,8-tetrahydro[1]benzothieno[2,3-d]pyrimidine-7-carboxamide] | 15.6 nM | – |
| CCOc1cc2[nH]ncc2cc1Nc1ncnc2sc3c(c12)CCC(C(=O)N1CCC(=O)CC1)C3 (racemic) [Example 211, (RS)-1-({4-[(6-Ethoxy-1H-indazol-5-yl)amino]-5,6,7,8-tetrahydro[1]benzothieno[2,3-d]pyrimidin-7-yl}carbonyl)piperidin-4-one] | – | 0.5 nM |
| CN(Cc1cccc(F)c1)C(=O)C1CCc2c(sc3ncnc(Nc4ccc5[nH]ncc5c4)c23)C1 (racemic) [Example 145, (RS)-N-(3-fluorobenzyl)-4-(1H-indazol-5-ylamino)-N-methyl-5,6,7,8-tetrahydro[1]benzothieno[2,3-d]pyrimidine-7-carboxamide] | 4.9 nM | – |
| O=C(NCCc1cccs1)C1CCc2c(sc3ncnc(Nc4ccc5[nH]ncc5c4)c23)C1 (racemic) [Example 116, (RS)-4-(1H-indazol-5-ylamino)-N-[2-(thiophen-2-yl)ethyl]-5,6,7,8-tetrahydro[1]benzothieno[2,3-d]pyrimidine-7-carboxamide] | 5.8 nM | – |
| CN(Cc1ccsc1)C(=O)C1CCc2c(sc3ncnc(Nc4ccc5[nH]ncc5c4)c23)C1 (racemic) [Example 162, (RS)-4-(1H-indazol-5-ylamino)-N-methyl-N-(thiophen-3-ylmethyl)-5,6,7,8-tetrahydro[1]benzothieno[2,3-d]pyrimidine-7-carboxamide] | 5.3 nM | – |
| COCCCNC(=O)C1CCc2c(sc3ncnc(Nc4ccc5[nH]ncc5c4)c23)C1 (stereo not drawn) [Example 48, 4-(1H-Indazol-5-ylamino)-N-(3-methoxypropyl)-5,6,7,8-tetrahydro[1] benzothieno [2,3-d]pyrimidine-7-carboxamide] | 12 nM | – |
| Cc1ccccc1N1CCN(C(=O)C2CCc3c(sc4ncnc(Nc5ccc6[nH]ncc6c5)c34)C2)CC1 (racemic) [Example 110, (R)S-[4-(1H-indazol-5-ylamino)-5,6,7,8-tetrahydro[1]benzothieno[2,3-d]pyrimidin-7-yl][4-(2-methylphenyl)piperazin-1-yl]methanone] | 132 nM | – |
| O=C(C1CCc2c(sc3ncnc(Nc4ccc5[nH]ncc5c4)c23)C1)N1CCN(Cc2ccccn2)CC1 (racemic) [Example 154, (RS)-[4-(1H-indazol-5-ylamino)-5,6,7,8-tetrahydro[1]benzothieno[2,3-d]pyrimidin-7-yl][4-(pyridin-2-ylmethyl)piperazin-1-yl]methanone] | 28.8 nM | – |
| CC(C)Oc1cc2[nH]ncc2cc1Nc1ncnc2sc3c(c12)CCC(C(=O)N1CCOCC1)C3 (racemic) [Example 218, (RS)-Morpholin-4-yl(4-{[6-(propan-2-yloxy)-1H-indazol-5-yl]amino}-5,6,7,8-tetrahydro[1]benzothieno[2,3-d]pyrimidin-7-yl)methanone] | 1.2 nM | – |
| CCOc1cc2[nH]ncc2cc1Nc1ncnc2sc3c(c12)CCC(C(=O)N1CCCC1)C3 (racemic) [Example 228, (RS)-{4-[(6-Ethoxy-1H-indazol-5-yl)amino]-5,6,7,8-tetrahydro[1]benzothieno[2,3-d]pyrimidin-7-yl}(pyrrolidin-1-yl)methanone] | 0.2 nM | – |
| CC(C)Oc1cc2[nH]ncc2cc1Nc1ncnc2sc3c(c12)CCC(C(=O)N1CC2(COC2)C1)C3 (racemic) [Example 206, (RS)-2-Oxa-6-azaspiro[3.3]hept-6-yl(4-{[6-(propan-2-yloxy)-1H-indazol-5-yl]amino}-5,6,7,8-tetrahydro[1]benzothieno[2,3-d]pyrimidin-7-yl)methanone] | 1 nM | – |
| O=C(C1CCc2c(sc3ncnc(Nc4ccc5[nH]ncc5c4)c23)C1)N1CCN(c2ccncc2)CC1 (racemic) [Example 112, (RS)-[4-(1H-indazol-5-ylamino)-5,6,7,8-tetrahydro[1]benzothieno[2,3-d]pyrimidin-7-yl][4-(pyridin-4-yl)piperazin-1-yl]methanone] | 9.4 nM | – |
